US10669242B2 (priority 2016, dated 2020)

Experiments:
[1] = target: T1, recombinant glucosyltransferase domain of C. difficile Toxin B/TcdB (Clostridioides difficile, UniProt P18177); experiment: biochemical
T1 construct: 6-His (C); purchased R&D Systems 6246-GT

[2] = target: T2, C. difficile full-length toxin TcdA (Clostridioides difficile, UniProt P16154); experiment: cell-based
T2 construct: C. difficile full-length toxins (TcdA or TcdB); purchased Enzo Life Sciences BML-G140-0050

[3] = target: T3, C. difficile full-length toxin TcdB (Clostridioides difficile, UniProt P18177); experiment: cell-based
T3 construct: C. difficile full-length toxins (TcdA or TcdB); purchased EMD Millipore 616377
T3 sequence (P18177 2-2366 limits assumed): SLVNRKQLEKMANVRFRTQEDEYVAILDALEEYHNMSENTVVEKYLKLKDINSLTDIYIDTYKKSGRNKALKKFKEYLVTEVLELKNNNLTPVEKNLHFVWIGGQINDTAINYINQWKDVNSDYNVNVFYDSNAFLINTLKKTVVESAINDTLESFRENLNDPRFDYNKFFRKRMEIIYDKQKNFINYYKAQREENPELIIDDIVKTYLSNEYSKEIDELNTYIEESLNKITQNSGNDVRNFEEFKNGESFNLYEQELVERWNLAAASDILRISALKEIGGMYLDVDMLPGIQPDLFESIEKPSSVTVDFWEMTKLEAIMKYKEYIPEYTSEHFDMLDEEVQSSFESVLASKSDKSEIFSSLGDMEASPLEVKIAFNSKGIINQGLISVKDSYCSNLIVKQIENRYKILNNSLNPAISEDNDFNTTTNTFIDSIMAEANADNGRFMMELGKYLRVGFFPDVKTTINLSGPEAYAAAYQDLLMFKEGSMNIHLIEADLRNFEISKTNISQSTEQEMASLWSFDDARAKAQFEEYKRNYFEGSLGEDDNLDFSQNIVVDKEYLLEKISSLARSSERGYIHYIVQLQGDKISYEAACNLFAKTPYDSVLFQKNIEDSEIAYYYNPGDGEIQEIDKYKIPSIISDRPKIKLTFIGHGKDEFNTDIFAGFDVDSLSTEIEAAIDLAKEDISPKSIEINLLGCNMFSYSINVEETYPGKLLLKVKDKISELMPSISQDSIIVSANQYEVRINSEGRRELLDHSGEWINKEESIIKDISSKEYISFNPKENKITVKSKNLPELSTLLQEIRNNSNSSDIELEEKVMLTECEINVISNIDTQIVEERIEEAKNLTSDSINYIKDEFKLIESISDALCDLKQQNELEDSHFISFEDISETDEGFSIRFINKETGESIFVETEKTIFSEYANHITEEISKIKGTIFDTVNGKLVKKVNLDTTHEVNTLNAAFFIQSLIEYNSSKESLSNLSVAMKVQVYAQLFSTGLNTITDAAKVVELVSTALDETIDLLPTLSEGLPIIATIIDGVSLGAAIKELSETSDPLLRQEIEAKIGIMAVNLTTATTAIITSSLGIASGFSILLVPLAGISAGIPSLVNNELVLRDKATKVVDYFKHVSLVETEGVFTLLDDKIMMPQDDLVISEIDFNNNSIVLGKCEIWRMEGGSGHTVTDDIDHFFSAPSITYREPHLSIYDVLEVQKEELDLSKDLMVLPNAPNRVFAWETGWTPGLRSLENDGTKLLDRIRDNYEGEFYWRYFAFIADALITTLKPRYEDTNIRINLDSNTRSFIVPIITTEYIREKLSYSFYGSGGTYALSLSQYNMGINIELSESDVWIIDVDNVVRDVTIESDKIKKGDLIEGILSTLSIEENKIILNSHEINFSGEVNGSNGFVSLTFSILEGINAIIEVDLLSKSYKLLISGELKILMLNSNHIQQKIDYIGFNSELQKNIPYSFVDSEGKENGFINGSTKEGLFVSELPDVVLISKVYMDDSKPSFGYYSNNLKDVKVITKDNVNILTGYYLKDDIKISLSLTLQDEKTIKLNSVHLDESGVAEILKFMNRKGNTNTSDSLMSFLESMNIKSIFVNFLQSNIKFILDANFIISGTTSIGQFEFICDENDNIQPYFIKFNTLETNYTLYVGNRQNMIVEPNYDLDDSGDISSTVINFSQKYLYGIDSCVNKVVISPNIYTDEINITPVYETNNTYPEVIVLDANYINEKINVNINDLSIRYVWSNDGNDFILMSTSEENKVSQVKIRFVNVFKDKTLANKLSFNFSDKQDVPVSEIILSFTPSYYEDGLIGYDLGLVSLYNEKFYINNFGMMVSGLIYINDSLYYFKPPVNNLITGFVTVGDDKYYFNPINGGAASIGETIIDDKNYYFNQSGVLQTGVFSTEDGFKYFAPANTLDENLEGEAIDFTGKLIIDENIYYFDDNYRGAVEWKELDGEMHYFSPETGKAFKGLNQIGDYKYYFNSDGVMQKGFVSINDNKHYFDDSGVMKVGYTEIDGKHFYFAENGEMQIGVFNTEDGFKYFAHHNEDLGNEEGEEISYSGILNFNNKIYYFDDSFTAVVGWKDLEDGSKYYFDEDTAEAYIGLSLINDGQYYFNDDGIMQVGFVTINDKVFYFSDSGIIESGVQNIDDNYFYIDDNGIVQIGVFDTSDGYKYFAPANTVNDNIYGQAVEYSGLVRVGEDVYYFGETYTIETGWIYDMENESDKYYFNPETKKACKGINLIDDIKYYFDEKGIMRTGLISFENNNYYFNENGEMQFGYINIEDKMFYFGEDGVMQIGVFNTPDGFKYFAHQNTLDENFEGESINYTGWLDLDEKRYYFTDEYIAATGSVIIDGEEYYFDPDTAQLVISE

[4] = tested on: C. difficile toxin (TcdA and TcdB, ~1:1); experiment: Murine C. difficile toxin model (intrarectal toxin); type: in vivo, C57BL/6 mice; settings: murine C. difficile toxin model, PO, 50 mg/kg body weight
Protocol: In the following studies, we established a murine C. difficile toxin model with modifications from a published murine model (Hirota, Iablokov et al. 2012). Details of the murine C. difficile toxin model are described in the “Experimental Protocols” (below). C. difficile toxins were isolated from a culture of the C. difficile strain VPI 10463. C. difficile toxins consisted of TcdA and TcdB (˜1:1 ratio of TcdA:TcdB). Respective TcdA and TcdB concentrations were determined by enzyme-linked immunosorbant assay (ELISA). In our mouse model, C. difficile toxins were administered intrarectally to evaluate their pathological effects.
We administered C. difficile toxin (12.5 μg/mouse) via intrarectal instillation into female C57BL/6 mice. Four (4) animals were used in each group. Four (4) hours after the toxin administration, the mice were euthanized. The colons were excised from the animals and washed with phosphate buffered saline (PBS). The colon lengths were measured. Excised colon tissues were stored at −70° C. for chemical analysis of interleukin-1β(IL-1β) and myeloperosidase (MPO) in tissues, which are the hallmarks of colon inflammation. Excised colon tissues were also stored at room temperature in 10% neutral buffered formalin for histopathological analysis.
Using the murine C. difficile toxin model (Example 61), we evaluated the efficacy of Example 6a in reducing the C. difficile toxin activity. In this study, the isolated toxin (12.5 μg) was diluted in 50 μl of PBS and mixed with a 50 μl suspension of Example 6a (10 mg/mL) in 1% carboxymethyl cellulose and 0.5% Tween 80 to achieve a fixed dose of […] of Example 6a (0.5 mg in mice weighing ˜20 g) and C. difficile toxin (12.5 μg). Three (3) animals were used in each group.
In this study, we evaluated the efficacy of Example 6a via different routes of administration (i.e., oral (PO) and intraperitoneal (IP) administrations) in the same murine C. difficile toxin model (Example 61). In both PO and IP dosages, Example 6a was prepared as 5 mg/mL solutions in 20% PEG-400, 0.4% carboxymethyl cellulose and 0.2% Tween 80. Example 6a was administered at a final dose of 50 mg/kg body weight. Three (3) mice were used in each group (i.e., vehicle (control), PO and IP).
Using the murine C. difficile toxin model (Example 63), we further tested the efficacy of four (4) additional compounds (i.e., Example 6a, Example 5ae, Example 4cl, and Example 5al) via PO administration. All of the compounds were dosed orally at 50 mg/kg body weight. In three separate studies a total of three (3) to fourteen (14) mice were used in each group.
We evaluated the efficacy of additional compounds in reducing C. difficile toxicity. Using the PO administration (Example 63), we further tested 30 compounds (Table 34). All of the compounds were dosed orally at 50 mg/kg body weight. Three (3) to fourteen (14) animals were used for each compound. % inhibition was determined by the following formula: […]
An overnight culture of C. difficile strain VPI 10463 (American Type Culture Collection) was grown at 37° C. in Brain-Heart Infusion (BHI) broth using the GasPak EZ Anaerobe Pouch System (Becton Dickinson). 2 mL of the culture was added to 28 mL of phosphate buffered saline (PBS) in a gamma-irradiated, 10,000 molecular weight cut-off, 30-70 ml Slide-A-Lyzer G2 dialysis cassette (Pierce). This cassette was submerged in 1 L of BHI broth in a 2 L beaker and incubated under anaerobic conditions for 5 days at 37° C. The culture was then transferred to a 50 mL conical tube and the cassette was washed with 10 mL of PBS. The combined culture and wash were centrifuged at 2,000 g for 20 minutes to pellet the bacteria and the supernatant was filtered through a 0.2 μm syringe filter. The filtrate was then applied to a 20 mL 150 K molecular weight cut-off concentration column (Pierce) and centrifuged at 2,000 g for 15 minutes. Concentrated supernatant was stored at 4° C. […]

T2 sequence (P16154 whole entry, looked up): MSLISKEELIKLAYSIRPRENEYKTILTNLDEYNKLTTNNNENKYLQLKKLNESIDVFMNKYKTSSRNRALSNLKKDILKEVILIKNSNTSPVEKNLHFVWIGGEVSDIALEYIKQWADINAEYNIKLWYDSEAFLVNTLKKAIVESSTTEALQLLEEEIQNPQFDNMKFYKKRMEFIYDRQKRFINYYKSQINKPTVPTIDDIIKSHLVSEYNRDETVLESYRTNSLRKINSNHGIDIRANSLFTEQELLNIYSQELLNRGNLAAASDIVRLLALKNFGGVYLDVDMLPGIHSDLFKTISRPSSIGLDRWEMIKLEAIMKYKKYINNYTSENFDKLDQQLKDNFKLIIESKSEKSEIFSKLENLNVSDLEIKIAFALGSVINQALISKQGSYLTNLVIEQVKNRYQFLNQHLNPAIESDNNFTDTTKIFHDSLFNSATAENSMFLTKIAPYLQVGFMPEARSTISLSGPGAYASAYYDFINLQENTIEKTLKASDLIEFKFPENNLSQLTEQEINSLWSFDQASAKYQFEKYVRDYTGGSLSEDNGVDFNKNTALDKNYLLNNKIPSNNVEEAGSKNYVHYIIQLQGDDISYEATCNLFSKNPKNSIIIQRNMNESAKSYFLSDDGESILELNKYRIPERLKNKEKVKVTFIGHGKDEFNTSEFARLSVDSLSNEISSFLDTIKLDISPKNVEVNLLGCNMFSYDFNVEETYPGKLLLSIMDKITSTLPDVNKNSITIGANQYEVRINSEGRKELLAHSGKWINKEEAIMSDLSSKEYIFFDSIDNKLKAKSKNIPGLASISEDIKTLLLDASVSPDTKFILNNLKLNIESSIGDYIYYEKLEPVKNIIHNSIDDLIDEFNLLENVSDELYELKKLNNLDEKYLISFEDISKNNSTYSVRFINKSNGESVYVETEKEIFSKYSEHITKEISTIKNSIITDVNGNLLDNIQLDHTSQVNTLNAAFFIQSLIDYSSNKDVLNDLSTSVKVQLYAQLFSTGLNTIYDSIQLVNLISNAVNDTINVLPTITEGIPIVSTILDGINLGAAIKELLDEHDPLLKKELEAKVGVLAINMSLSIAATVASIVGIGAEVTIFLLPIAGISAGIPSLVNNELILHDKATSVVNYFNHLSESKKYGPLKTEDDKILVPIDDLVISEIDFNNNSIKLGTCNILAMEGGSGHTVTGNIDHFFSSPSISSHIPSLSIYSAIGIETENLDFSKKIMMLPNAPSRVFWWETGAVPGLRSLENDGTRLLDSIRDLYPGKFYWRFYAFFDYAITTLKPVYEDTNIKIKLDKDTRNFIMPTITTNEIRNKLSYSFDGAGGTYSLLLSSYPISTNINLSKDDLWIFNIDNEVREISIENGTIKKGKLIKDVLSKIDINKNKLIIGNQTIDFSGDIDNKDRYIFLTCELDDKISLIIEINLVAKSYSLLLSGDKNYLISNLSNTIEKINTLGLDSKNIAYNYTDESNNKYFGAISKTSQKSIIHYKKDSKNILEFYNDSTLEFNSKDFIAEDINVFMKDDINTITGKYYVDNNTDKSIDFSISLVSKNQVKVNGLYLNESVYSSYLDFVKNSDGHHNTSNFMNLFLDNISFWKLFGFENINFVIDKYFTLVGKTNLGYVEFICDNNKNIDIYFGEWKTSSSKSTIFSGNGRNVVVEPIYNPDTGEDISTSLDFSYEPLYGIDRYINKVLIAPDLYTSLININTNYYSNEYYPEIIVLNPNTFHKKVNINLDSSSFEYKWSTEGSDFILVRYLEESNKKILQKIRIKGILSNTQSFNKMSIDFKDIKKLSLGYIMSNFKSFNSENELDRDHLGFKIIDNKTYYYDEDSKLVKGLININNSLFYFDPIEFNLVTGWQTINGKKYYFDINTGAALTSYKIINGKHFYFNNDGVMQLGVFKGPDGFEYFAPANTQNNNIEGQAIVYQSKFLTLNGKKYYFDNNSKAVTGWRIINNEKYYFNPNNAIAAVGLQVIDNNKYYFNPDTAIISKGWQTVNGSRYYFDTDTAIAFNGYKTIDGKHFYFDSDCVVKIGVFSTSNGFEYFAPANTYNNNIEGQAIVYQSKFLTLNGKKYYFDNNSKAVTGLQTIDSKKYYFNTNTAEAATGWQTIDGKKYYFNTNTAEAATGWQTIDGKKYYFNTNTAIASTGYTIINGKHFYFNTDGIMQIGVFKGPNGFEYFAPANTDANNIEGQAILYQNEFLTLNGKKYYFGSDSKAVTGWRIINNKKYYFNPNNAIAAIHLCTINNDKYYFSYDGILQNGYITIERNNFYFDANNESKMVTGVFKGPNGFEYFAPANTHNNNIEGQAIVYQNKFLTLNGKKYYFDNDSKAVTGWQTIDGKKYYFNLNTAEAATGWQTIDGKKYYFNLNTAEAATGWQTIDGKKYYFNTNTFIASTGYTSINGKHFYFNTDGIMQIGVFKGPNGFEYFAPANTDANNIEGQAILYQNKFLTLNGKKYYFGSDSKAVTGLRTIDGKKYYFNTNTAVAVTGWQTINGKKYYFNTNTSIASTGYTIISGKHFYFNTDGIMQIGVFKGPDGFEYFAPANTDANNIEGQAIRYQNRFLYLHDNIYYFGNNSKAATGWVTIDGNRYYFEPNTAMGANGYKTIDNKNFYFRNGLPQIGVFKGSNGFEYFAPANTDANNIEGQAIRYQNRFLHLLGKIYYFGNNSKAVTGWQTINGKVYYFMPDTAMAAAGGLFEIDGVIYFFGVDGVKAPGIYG

Row | Structure (SMILES) | IC50 [1] | IC50 [2] | IC50 [3] | IL-1β (% Inhibition) [4] | MPO (% Inhibition) [4]
1 | COc1cnc(NC(=O)c2ccc(CN3C(=O)c4ccc(Cl)cc4NC(=O)[C@H]3Cc3ccccn3)cc2C)cn1 [Example 5af, (R)-4-((8-Chloro-2,5-dioxo-3-(pyridin-2-ylmethyl)-2,3-dihydro-1H-benzo[e][1,4]diazepin-4(5H)-yl)methyl)-N-(5-methoxypyrazin-2-yl)-2-methylbenzamide] | < 0.1 µM | 1 to 10 µM | 0.1 to 0.999 µM | 100% | 100%
2 | Cc1ccc(NC(=O)c2ccc(CN3C(=O)c4ccc(Cl)cc4NC(=O)[C@H]3Cc3ccccn3)cc2Cl)nc1 [Example 4cb, (R)-2-Chloro-4-((8-chloro-2,5-dioxo-3-(pyridin-2-ylmethyl)-2,3-dihydro-1H-benzo[e][1,4]diazepin-4(5H)-yl)methyl)-N-(5-methylpyridin-2-yl)benzamide] | < 0.1 µM | 0.1 to 0.999 µM | < 0.1 µM | 74% | 99%
3 | COc1cc(CN2C(=O)c3ccc(Cl)cc3NC(=O)[C@H]2Cc2ccccn2)ccc1C(=O)Nc1ccc(C)cn1 [Example 4cm, (R)-4-((8-Chloro-2,5-dioxo-3-(pyridin-2-ylmethyl)-2,3-dihydro-1H-benzo[e][1,4]diazepin-4(5H)-yl)methyl)-2-methoxy-N-(5-methylpyridin-2-yl)benzamide] | < 0.1 µM | > 10 µM | 0.1 to 0.999 µM | 49% | 35%
4 | O=C(c1ccc(CN2C(=O)c3ccc(Cl)cc3NC(=O)[C@H]2Cc2ccccn2)cc1)c1ccccn1 [Example 11a, (R)-8-Chloro-4-(4-picolinoylbenzyl)-3-(pyridin-2-ylmethyl)-3,4-dihydro-1H-benzo[e][1,4]diazepine-2,5-dione] | < 0.1 µM | > 10 µM | 1 to 10 µM | 22% | 0%
5 | Cc1ccc(C(=O)c2ccc(CN3C(=O)c4ccc(Cl)cc4NC(=O)[C@H]3Cc3ccccn3)cc2)nc1 [Example 11b, (R)-8-Chloro-4-(4-(5-methylpicolinoyl)benzyl)-3-(pyridin-2-ylmethyl)-3,4-dihydro-1H-benzo[e][1,4]diazepine-2,5-dione] | < 0.1 µM | > 10 µM | 1 to 10 µM | 52% | 100%
6 | O=C(Nc1ccc(F)cn1)c1ccc(CN2C(=O)c3ccc(Cl)cc3NC(=O)[C@H]2Cc2ccccn2)cc1 [Example 4a, (R)-4-((8-Chloro-2,5-dioxo-3-(pyridin-2-ylmethyl)-2,3-dihydro-1H-benzo[e][1,4]diazepin-4(5H)-yl)methyl)-N-(5-fluoropyridin-2-yl)benzamide] | < 0.1 µM | 1 to 10 µM | < 0.1 µM | 30% | 51%
7 | Cc1ccc(NC(=O)c2ccc(CN3C(=O)c4ccc(Cl)cc4NC(=O)[C@H]3Cc3ccccn3)cc2C)nc1 [Example 4ck, (R)-4-((8-Chloro-2,5-dioxo-3-(pyridin-2-ylmethyl)-2,3-dihydro-1H-benzo[e][1,4]diazepin-4(5H)-yl)methyl)-2-methyl-N-(5-methylpyridin-2-yl)benzamide] | < 0.1 µM | 0.1 to 0.999 µM | < 0.1 µM | 82% | 79%
8 | COc1cc(CN2C(=O)c3ccc(Cl)cc3NC(=O)[C@H]2Cc2ccccn2)ccc1C(=O)Nc1cnc(C)cn1 [Example 5aj, (R)-4-((8-Chloro-2,5-dioxo-3-(pyridin-2-ylmethyl)-2,3-dihydro-1H-benzo[e][1,4]diazepin-4(5H)-yl)methyl)-2-methoxy-N-(5-methylpyrazin-2-yl)benzamide] | < 0.1 µM | 1 to 10 µM | 0.1 to 0.999 µM | 76% | 17%
9 | COc1cnc(NC(=O)c2ccc(CN3C(=O)c4ccc(Cl)cc4NC(=O)[C@H]3Cc3ccccn3)cc2Cl)nc1 [Example 5ab, (R)-2-Chloro-4-((8-chloro-2,5-dioxo-3-(pyridin-2-ylmethyl)-2,3-dihydro-1H-benzo[e][1,4]diazepin-4(5H)-yl)methyl)-N-(5-methoxypyrimidin-2-yl)benzamide] | < 0.1 µM | 1 to 10 µM | < 0.1 µM | 100% | 100%
10 | O=C(Nc1ccc(CN2C(=O)c3ccc(Cl)cc3NC(=O)[C@H]2Cc2ccccn2)cc1)c1c[nH]cn1 [Example 27j, (R)-N-(4-((8-Chloro-2,5-dioxo-3-(pyridin-2-ylmethyl)-2,3-dihydro-1H-benzo[e][1,4]diazepin-4(5H)-yl)methyl)phenyl)-1H-imidazole-4-carboxamide] | < 0.1 µM | > 10 µM | 1 to 10 µM | 41% | 1%
11 | O=C(c1ccc(CN2C(=O)c3ccc(Cl)cc3NC(=O)[C@H]2Cc2ccccn2)cc1)c1c[nH]c2cccnc12 [Example 32a, 4-(4-(1H-Pyrrolo[3,2-b]pyridine-3-carbonyl)benzyl)-8-chloro-3-(pyridin-2-ylmethyl)-3,4-dihydro-1H-benzo[e][1,4]diazepine-2,5-dione] | < 0.1 µM |  |  | 72% | 76%
12 | O=C(c1ccc(CN2C(=O)c3ccc(Cl)cc3NC(=O)[C@H]2Cc2ccccn2)cc1)c1cccn2ccnc12 [Example 34a, (R)-8-Chloro-4-(4-(imidazo[1,2-α]pyridine-8-carbonyl)benzyl)-3-(pyridin-2-ylmethyl)-3,4-dihydro-1H-benzo[e][1,4]diazepine-2,5-dione] | < 0.1 µM | > 10 µM | 0.1 to 0.999 µM |  | 
13 | Cc1ccc(C(=O)Nc2ccc(CN3C(=O)c4ccc(Cl)cc4NC(=O)[C@H]3Cc3ccccn3)cc2)nc1 [Example 26f] | < 0.1 µM |  |  |  | 
14 | O=C1Nc2cc(Cl)ccc2C(=O)N(C[C@H]2CC[C@H](C(=O)c3cccc4cccnc34)CC2)[C@@H]1Cc1ccccn1 [Example 33a, (R)-8-Chloro-3-(pyridin-2-ylmethyl)-4-(((1r,4R)-4-(quinoline-8-carbonyl)cyclohexyl)methyl)-3,4-dihydro-1H-benzo[e][1,4]diazepine-2,5-dione] | 10 to 35 µM |  |  |  | 
15 | CN(C)CC(=O)Nc1cc(CN2C(=O)c3ccc(Cl)cc3NC(=O)[C@H]2Cc2ccccn2)ccc1C(=O)O [Example 22d] | 1 to 10 µM |  |  |  | 
16 | Cc1ccc(C(=O)N[C@H]2CC[C@H](CN3C(=O)c4ccc(Cl)cc4NC(=O)[C@H]3Cc3ccccn3)CC2)nc1 [Example 25a, N-((1R,4r)-4-(((R)-8-Chloro-2,5-dioxo-3-(pyridin-2-ylmethyl)-2,3-dihydro-1H-benzo[e][1,4]diazepin-4(5H)-yl)methyl)cyclohexyl)-5-methylpicolinamide] | 0.1 to 0.999 µM |  |  |  | 
17 | O=C1Nc2cc(Cl)ccc2C(=O)N(Cc2ccc(C(=NO)c3ccccn3)cc2)[C@@H]1Cc1ccccn1 (mixture of isomers) [Example 52a, (R)-8-Chloro-4-(4-((hydroxyimino)(pyridin-2-yl)methyl)benzyl)-3-(pyridin-2-ylmethyl)-3,4-dihydro-1H-benzo[e][1,4]diazepine-2,5-dione] | 0.1 to 0.999 µM |  |  |  | 
